Numbers after ± are expanded uncertainties.
Assay: molar heat capacity at constant pressure
Conditions: 101.33 kPa, Crystal, Vacuum adiabatic calorimetry

O=C([O-])c1ccccc1.O=C([O-])c1ccccc1.[Ba+2] [barium benzoate]
Conditions	molar heat capacity at constant pressure [J/K/mol]
77.78 K	109.64 ± 0.68
79.5 K	111.79 ± 0.7
82.08 K	114.77 ± 0.71
84.57 K	117.57 ± 0.73
86.98 K	119.65 ± 0.74
89.39 K	121.92 ± 0.76
91.65 K	124.31 ± 0.78
93.86 K	126.6 ± 0.79
96.1 K	128.79 ± 0.81
98.25 K	130.89 ± 0.82
100.3 K	132.67 ± 0.83
102.4 K	134.86 ± 0.84
104.4 K	137.21 ± 0.86
106.5 K	139.25 ± 0.87
108.3 K	141.18 ± 0.88
110.3 K	142.99 ± 0.89
112.2 K	144.86 ± 0.9
114.1 K	146.37 ± 0.91
115.9 K	148.24 ± 0.92
117.8 K	150.2 ± 0.93
119.6 K	152.24 ± 0.95
122.4 K	154.37 ± 0.96
125.9 K	157.49 ± 0.98
128.8 K	160.12 ± 0.99
131.6 K	162.83 ± 1
134.5 K	165.78 ± 1
137.4 K	168.03 ± 1
140.3 K	170.89 ± 1.1
143.1 K	173.54 ± 1.1
146.1 K	176.75 ± 1.1
148.9 K	178.82 ± 1.1
152.8 K	182.27 ± 1.1
154.7 K	184.19 ± 1.1
157.6 K	186.99 ± 1.1
160.4 K	189.18 ± 1.2
163.4 K	191.95 ± 1.2
166.3 K	194.11 ± 1.2
169.1 K	197.21 ± 1.2
172 K	199.98 ± 1.2
174.9 K	202.6 ± 1.2
177.8 K	204.53 ± 1.3
180.6 K	207.13 ± 1.3
184.7 K	211.18 ± 1.3
188.6 K	214.68 ± 1.3
191.5 K	216.93 ± 1.3
194.4 K	219.24 ± 1.4
197.2 K	221.9 ± 1.4
200.2 K	224.02 ± 1.4
203.1 K	226.01 ± 1.4
206 K	228.46 ± 1.4
208.9 K	231.14 ± 1.4
211.8 K	233.77 ± 1.4
214.6 K	235.99 ± 1.4
217.5 K	238.64 ± 1.5
220.5 K	240.68 ± 1.5
223.4 K	243.49 ± 1.5
226.3 K	245.79 ± 1.5
229.1 K	248.3 ± 1.5
232 K	250.4 ± 1.5
235 K	253.03 ± 1.6
238 K	255.71 ± 1.6
242.6 K	259.3 ± 1.6
245.5 K	262.07 ± 1.6
248.3 K	264.47 ± 1.6
251.2 K	266.71 ± 1.6
254.2 K	269.22 ± 1.6
257 K	270.83 ± 1.7
259.8 K	272.78 ± 1.7
262.7 K	276.16 ± 1.7
265.6 K	277.74 ± 1.7
268.6 K	279.79 ± 1.7
271.6 K	282.06 ± 1.7
274.5 K	284.16 ± 1.7
277.5 K	286.12 ± 1.8
280.4 K	288.42 ± 1.8
283.3 K	290.79 ± 1.8
286.3 K	292.92 ± 1.8
289.2 K	295.05 ± 1.8
292 K	297.35 ± 1.8
294.9 K	299.58 ± 1.8
297.9 K	301.75 ± 1.8
300.8 K	303.71 ± 1.9
303.6 K	305.99 ± 1.9
306.5 K	308.5 ± 1.9
309.3 K	310.54 ± 1.9
312.2 K	312.73 ± 1.9
315.2 K	314.63 ± 1.9
318.2 K	316.73 ± 1.9
321.2 K	318.3 ± 1.9
324.1 K	320.78 ± 2
327 K	322.91 ± 2
330 K	325.19 ± 2
332.9 K	327.09 ± 2
335.9 K	329.01 ± 2
338.7 K	330.94 ± 2
341.6 K	333.36 ± 2
344.6 K	335.34 ± 2
347.5 K	337.3 ± 2.1
350.3 K	339.28 ± 2.1
353.2 K	340.83 ± 2.1
356.2 K	342.81 ± 2.1
359 K	344.74 ± 2.1
361.9 K	346.43 ± 2.1
364.8 K	348.25 ± 2.1
367.6 K	350.41 ± 2.1
370.5 K	352.35 ± 2.1
373.5 K	354.08 ± 2.2
376.4 K	355.62 ± 2.2
379.4 K	358.05 ± 2.2
382.4 K	359.77 ± 2.2
385.3 K	361.34 ± 2.2
388.3 K	363.44 ± 2.2
390.7 K	364.99 ± 2.2
393 K	366.42 ± 2.2
395.9 K	368.64 ± 2.2
398.9 K	370.39 ± 2.3
401.9 K	371.91 ± 2.3

— the NIST ThermoML archive (doi:10.1021/je800876t)
